Where two headings read alike, the source gives them in different places.
Experiments:
[1] = target: T1, acid-urease obtained by culturing Lactobacillus fermentum TK 1214 (Limosilactobacillus fermentum, UniProt P26929); experiment: Substrate specificity of acid urease (colorimetric assay of ammonia formed); type: biochemical; conditions: substance used as substrate of acid urease
T1 sequence (P26929 1-573): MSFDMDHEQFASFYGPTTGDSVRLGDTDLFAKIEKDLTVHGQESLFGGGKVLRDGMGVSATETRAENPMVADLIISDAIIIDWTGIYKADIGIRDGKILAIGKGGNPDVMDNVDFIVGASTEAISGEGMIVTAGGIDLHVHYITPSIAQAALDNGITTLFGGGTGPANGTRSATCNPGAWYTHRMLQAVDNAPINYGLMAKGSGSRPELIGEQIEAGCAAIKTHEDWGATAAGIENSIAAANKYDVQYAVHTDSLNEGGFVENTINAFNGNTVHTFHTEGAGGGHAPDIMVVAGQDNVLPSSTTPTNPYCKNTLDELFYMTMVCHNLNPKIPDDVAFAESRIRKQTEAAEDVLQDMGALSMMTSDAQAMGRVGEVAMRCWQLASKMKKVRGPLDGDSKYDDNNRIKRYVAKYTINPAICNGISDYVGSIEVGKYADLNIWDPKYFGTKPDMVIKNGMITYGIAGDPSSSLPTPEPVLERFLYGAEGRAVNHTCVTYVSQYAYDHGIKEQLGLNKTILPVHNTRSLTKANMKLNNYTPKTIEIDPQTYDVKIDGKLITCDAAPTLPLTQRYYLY
T1 sequence (P26930 1-124 partner): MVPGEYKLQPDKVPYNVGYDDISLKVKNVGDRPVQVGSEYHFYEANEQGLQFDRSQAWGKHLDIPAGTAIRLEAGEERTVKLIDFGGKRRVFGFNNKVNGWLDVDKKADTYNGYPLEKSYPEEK
T1 sequence (P26931 1-100 partner): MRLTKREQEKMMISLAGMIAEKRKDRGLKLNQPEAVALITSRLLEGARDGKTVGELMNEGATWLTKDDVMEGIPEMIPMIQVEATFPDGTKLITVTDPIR
Description: (2) Substrate specificity:
(§1) by Colorimetric assay of ammonia formed by reaction with urea.
(§2) 0.1M acetate buffer (pH 4.0): 0.6 ml
(§3) React at 37° C. for 10 minutes, add 0.2 ml of 1.0N H2 SO4 and stop the reaction. Take out a part of reaction solution and give coloring by Indophenol reagent. Measure the absorbance at 630 nm, and determine quantity of decomposed urea by assaying formed ammonia.
(§4) 1 unit activity (I.U.) of acid-urease is quantity of enzyme which decomposes 1 μmole of urea at 37° C., pH 4.0 for one minute.

[2] = target: T1, acid-urease obtained by culturing Lactobacillus fermentum TK 1214; experiment: Inhibition and activation of acid urease by additives; type: biochemical
Description: (5) Inhibition and activation:
as §1, §2, §3, §4

[3] = target: T1, acid-urease obtained by culturing Lactobacillus fermentum TK 1214; experiment: Stabilization of acid urease by additives (treated at 65° C. for 10 minutes); type: biochemical; conditions: additive 1 mM, not added: 80
Description: (6) Stabilization (treated at 65° C. for 10 minutes):
as §1, §3

[4] = target: neutral urease from sword beans
[5] = target: acid urease from Lactobacillus fermentum TK 1214 (Limosilactobacillus fermentum, UniProt P26929)

SMILES | relevant activity (%) [1] [%] | Relative activity (%) after heat treatment [3] [%] | also measured
C=CCNC(N)=O [Allylurea] | 0 | – | –
O=C(NO)c1ccccc1 [Benzohydroxamic acid] | 0 | – | Relative activity (%) ([2]; additive 0.5 mM): 50%
CCCCCCCC(=O)NO [Caprilohydroxamic acid] | 0 | – | Relative activity (%) ([2]; additive 0.04 mM): 50%
N[C@@H](CS)C(=O)O [Cysteine] | – | 100 | Relative activity (%) ([2]; additive 1 mM): 100%
O[C@H](CS)[C@@H](O)CS [Dithioerithritol] | – | 100 | –
O[C@H](CS)[C@H](O)CS [Dithiothreitol] | – | 100 | –
O=C(O)CN(CCN(CC(=O)O)CC(=O)O)CC(=O)O [EDTA-4Na] | – | 100 | –
CCO [Ethanol] | – | – | Ki (inhibitor constant) value against ethanol [4]: about 9%; Relative activity (%) [2]: 50%; Ki (inhibitor constant) value against ethanol [5]: about 40%
CCNC(N)=O [Ethylurea] | 0 | – | –
N[C@@H](CCC(=O)N[C@@H](CS)C(=O)NCC(=O)O)C(=O)O [Glutathione] | – | 100 | Relative activity (%) [2]: 100%
NO [Hydroxylamine] | 0 | – | –
NC(=O)NO [Hydroxyurea] | 0 | – | –
OCCS [Mercapto ethanol] | – | 100 | Relative activity (%) ([2]; additive 1 mM): 100%
CNC(N)=O [Methylurea] | 0 | – | –
O=C(NO)c1cccnc1 [Nicotinhydroxamic acid] | 0 | – | Relative activity (%) ([2]; additive 0.5 mM): 50%
NC(N)=S [Thiourea] | 0 | – | –
NC(N)=O [Urea] | 100 | – | –
O=C([O-])c1cc[c]([Hg][Cl])cc1 [p-Chloromercuricbenzoate] | – | – | Relative activity (%) ([2]; additive 0.05 mM): 50%

— patent publication US4970153A, “Method of producing acid urease and the use of the urease” (Nagase & Co., Ltd., priority 1987, dated 1990)
